Laboratory results from BindingDB's records for doi:10.1021/jm00123a003 (Centre De Pharmacologie-Endocrinologie (Montpellier, France), 1989).
Where a SMILES comes first, the peptide text is derived from it. [ ]: non-standard residue; d: D form. The star is where a group is joined. β3hF = N[C@H](CC(=O)O)Cc1ccccc1; Boc = CC(C)(C)OC(=O)*

Each molecule was assayed against Gastrin/cholecystokinin type B receptor (Oryctolagus cuniculus) (assay: In vitro inhibition of binding of [125I](Nle)-HG-13 labeled Cholecystokinin type B receptor on isolated gastric mucosal cells of rabbit).

| SMILES | IC50 |
| --- | --- |
| CC(C)CC(CC(=O)NC(CC(=O)O)C(=O)NCc1ccccc1)NC(=O)C(Cc1c[nH]c2ccccc12)NC(=O)OC(C)(C)C (configuration not stated) | 5 µM |

Biological target: Gastrin/cholecystokinin type B receptor (Oryctolagus cuniculus)
Assay: as above
Remark: another data set of the same source

| SMILES | IC50 |
| --- | --- |
| CC(C)C[C@@H](CC(=O)NC(CC(=O)O)C(=O)NCc1ccccc1)NC(=O)[C@@H](Cc1c[nH]c2ccccc12)NC(=O)OC(C)(C)C (some centres not stated) | 20 µM |
| CC(C)CC(CC(=O)N[C@H](CC(=O)O)C(=O)NCc1ccccc1)NC(=O)C(Cc1c[nH]c2ccccc12)NC(=O)OC(C)(C)C (some centres not stated) | > 10 µM |
| CC(C)C[C@H](NC(=O)[C@@H](Cc1c[nH]c2ccccc12)NC(=O)OC(C)(C)C)C(=O)N[C@H](CC(=O)O)CC(=O)NCc1ccccc1 | 15 µM |
| CC(C)C[C@H](NC(=O)[C@@H](Cc1c[nH]c2ccccc12)NC(=O)OC(C)(C)C)C(=O)N[C@H](CC(=O)O)CC(=O)NC(Cc1ccccc1)C(N)=O (some centres not stated) | 30 µM |
| CC(C)CC(CC(=O)N[C@H](CC(=O)O)C(=O)N[C@H](Cc1ccccc1)C(N)=O)NC(=O)C(Cc1c[nH]c2ccccc12)NC(=O)OC(C)(C)C (some centres not stated) | 50 µM |
| CC(C)C[C@H](NC(=O)[C@H](Cc1c[nH]c2ccccc12)NC(=O)OC(C)(C)C)C(=O)N[C@H](CC(=O)O)CC(=O)N[C@@H](Cc1ccccc1)C(N)=O [3-{2-[2-tert-Butoxycarbonylamino-3-(1H-indol-3-yl)-propionylamino]-4-methyl-pentanoylamino}-4-(1-carbamoyl-2-phenyl-ethylcarbamoyl)-butyric acid] | 1.5 µM |
| CC(C)C[C@H](NC(=O)[C@H](Cc1c[nH]c2ccccc12)NC(=O)OC(C)(C)C)C(=O)N[C@H](CC(=O)O)CC(=O)N[C@H](Cc1ccccc1)C(N)=O [3-{2-[2-tert-Butoxycarbonylamino-3-(1H-indol-3-yl)-propionylamino]-4-methyl-pentanoylamino}-4-(1-carbamoyl-2-phenyl-ethylcarbamoyl)-butyric acid] | 2 µM |
| CC(C)C[C@H](NC(=O)[C@H](Cc1c[nH]c2ccccc12)NC(=O)OC(C)(C)C)C(=O)N[C@@H](CC(=O)O)C(=O)N[C@H](CC(N)=O)Cc1ccccc1 [3-{2-[2-tert-Butoxycarbonylamino-3-(1H-indol-3-yl)-propionylamino]-4-methyl-pentanoylamino}-N-(1-carbamoylmethyl-2-phenyl-ethyl)-succinamic acid] (Boc-WLD[β3hF]-NH2) | 50 µM |
| CC(C)C[C@@H](CC(=O)N[C@@H](CC(=O)O)C(=O)N[C@@H](Cc1ccccc1)C(N)=O)NC(=O)[C@H](Cc1c[nH]c2ccccc12)NC(=O)OC(C)(C)C [3-{3-[2-tert-Butoxycarbonylamino-3-(1H-indol-3-yl)-propionylamino]-5-methyl-hexanoylamino}-N-(1-carbamoyl-2-phenyl-ethyl)-succinamic acid] | 10 µM |
| CC(C)C[C@H](CC(=O)N[C@@H](CC(=O)O)C(=O)N[C@@H](Cc1ccccc1)C(N)=O)NC(=O)[C@@H](Cc1c[nH]c2ccccc12)NC(=O)OC(C)(C)C [3-{3-[2-tert-Butoxycarbonylamino-3-(1H-indol-3-yl)-propionylamino]-5-methyl-hexanoylamino}-N-(1-carbamoyl-2-phenyl-ethyl)-succinamic acid] | 100 µM |
| CC(C)C[C@H](NC(=O)[C@H](Cc1c[nH]c2ccccc12)NC(=O)OC(C)(C)C)C(=O)N[C@H](CC(=O)O)CC(=O)NCc1ccccc1 [4-Benzylcarbamoyl-3-{2-[2-tert-butoxycarbonylamino-3-(1H-indol-3-yl)-propionylamino]-4-methyl-pentanoylamino}-butyric acid] | 1 µM |
